Assays:
[1] = Pharmacokinetic study in SD rats after intravenous administration (plasma, LC-MS/MS); assay type: in vivo, Spague-Dawley rats; conditions: for AUC0-∞ / AUC0–t / C5min: rat plasma; for C5min: n = 6; for CL/F / V/F / t1/2: rat
Method: (§1) The analyte of GC20 in rat biological samples was extracted using one-step protein precipitation. 50 μL of rat plasma or rat tissue homogenate was treated with 250 μL methanol containing IS (375 ng/mL). Vortex for 5 min to completely precipitate the proteins contained in the biological matrix. The mixture was then centrifuged at 18,000 rpm for 10 min (Sorvall Biofuge Stratos, Waltham, MA, USA), and 5 μL supernatant was injected for analysis.
Twenty-four Spague-Dawley rats (twelve male and twelve female, 6–8 weeks old) were purchased from Shanghai SLAC Laboratory Animal Co., Ltd. (Shanghai, China). Animals were housed in an environment which controlled room temperature at 22 ± 2 °C and humidity at 55 ± 5%. Animals received 12/12 h light/dark cycle. Prior to the experiment, animals were fed a standard diet for one week to adapt to the laboratory conditions. Animal welfare and experimental procedures were strictly in accordance with the Guidelines of Animal Experiments of China Pharmaceutical University (Nanjing, China) and approved by the Animal Ethics Committee.
All rats were randomly divided into four groups, each group of six (three male and three female in each group). Three groups consisted of rats that received a single intravenous administration of GC20 at a single dose of 1, 2 or 4 mg/kg, while the fourth group consisted of rats that received a dose of 2 mg/kg on seven consecutive days. The doses for single administration was determined according to the pharmacodynamic doses and toxic doses of GC20 in animals reported in the literature. The dose for multiple administrations was selected from the intermediate dose of a single administration. Dose solutions were prepared with 10% glucose solution. Before administration, rats fasted for 12 h. Blood samples (150 μL) were collected into tubes containing heparin (as an anticoagulant) via the ophthalmic veins at 0 min (i.e., before dosing), 5 min, 10 min, 15 min, 30 min, 1 h, 2 h, 4 h, 6 h, 8 h, 12 h, 24 h, 36 h, 48 h and 72 h. Then, the tubes were centrifuged at 8000 rpm for 5 min to separate the plasma. Plasma samples were then stored at −80 °C until further analysis. The pharmacokinetic parameters were calculated by Phoenix WinNonlin 6.0 (Pharsight, Mountain View, CA, USA).

[2] = Stability of GC20 in rat plasma under different storage conditions; assay type: in vitro ADME; conditions: for Measured Concentration: n = 6
Method: Extraction recovery was calculated by comparing the peak areas of extraction samples and post-extraction spiked samples. Matrix effect was evaluated by comparing the peak areas of post-extraction spiked samples and pure standard solutions. Post-extraction spiked samples were prepared as follows: Adding standard working solution into the mixed solution after protein precipitation of blank plasma to yield equivalent concentrations to corresponding extraction samples. Six replicates at three concentration levels were used for stability validation under a variety of storage and handling conditions. Samples were subjected to three freeze-thaw cycles, frozen at −80 °C for 7 days and 60 days, and storing at room temperature for 12 h. Post-preparative stability was evaluated by reanalyzing post-extraction samples kept in the autosampler at 4 °C for 48 h.

[3] = Tissue distribution in rats after single intravenous administration; assay type: in vivo, SD rats; conditions: single i.v. 2 mg/kg
Method: as §1
Eighteen SD rats (nine male and nine female, 6–8 weeks old) were purchased from Shanghai SLAC Laboratory Animal Co., Ltd. (Shanghai, China). After one week of adaptation, all rats were randomly divided into three groups, each group of six (three male and three female in each group). All rats were administrated GC20 solution at a single dose of 2 mg/kg vial the tail vein. The administered dose for tissue distribution was selected from the intermediate dose of single administration in the pharmacokinetic study. Blood samples were first collected via the ophthalmic veins and then rats were sacrificed to harvest tissues (i.e., heart, liver, spleen, lungs, kidneys, stomach, small intestine, brain, skin, muscle, fat, testes/ovaries, pancreas, thymus, and leg bones) promptly at 10 min, 2 h, or 12 h after dosing. To eliminate blood and other content, the tissues were thoroughly rinsed in water. Each tissue sample was homogenized into ten-fold volumes of water and then stored at −80 °C until further analysis.

[4] = parameters: method as in PMID 23362983; conditions: cited from earlier work
[5] = system: broad spectrum of cancer cell lines, including cisplatin-resistant ones; parameters: method as in PMID 23362983; conditions: cited from earlier work
[6] = multiple dose i.v. 2 mg/kg on seven consecutive days
[7] = post-extraction samples, autosampler 48 h at 4 °C, spiked 50 ng/mL
[8] = post-extraction samples, autosampler 48 h at 4 °C, spiked 1000 ng/mL
[9] = rat plasma, frozen (−80 °C) for 7 days, spiked 50 ng/mL
[10] = rat plasma, frozen (−80 °C) for 7 days, spiked 1000 ng/mL
[11] = rat plasma, frozen (−80 °C) for 60 days, spiked 2 ng/mL
[12] = rat plasma, frozen (−80 °C) for 60 days, spiked 50 ng/mL
[13] = rat plasma, frozen (−80 °C) for 60 days, spiked 1000 ng/mL
[14] = rat plasma, room temperature for 12 h, spiked 2 ng/mL
[15] = rat plasma, room temperature for 12 h, spiked 50 ng/mL
[16] = rat plasma, room temperature for 12 h, spiked 1000 ng/mL
[17] = rat plasma, three freeze-thaw cycles, spiked 2 ng/mL
[18] = rat plasma, three freeze-thaw cycles, spiked 50 ng/mL
[19] = rat plasma, three freeze-thaw cycles, spiked 1000 ng/mL

## CC(C)(C)[P+]1(C)c2nc3ccccc3nc2[P+](C)(C(C)(C)C)[Au-3]12[P+](C)(C(C)(C)C)c1nc3ccccc3nc1[P+]2(C)C(C)(C)C (centres unmarked) [GC20, Bis(2,3-bis(tert-butylmethylphosphino)quinoxaline)aurate(I)]
[1]; [6]
  AUC0-∞: 6936.7 ± 1005.4 ng·h/mL
  C5min: 3645.8 ± 388.3 ng/mL
  CL/F: 4.83 ± 0.67 mL/min/kg
  V/F: 10.6 ± 1.7 L/kg
  t1/2: 25.1 ± 3.0 h
[1]; multiple dose i.v. 2 mg/kg on seven consecutive days, 0–24 h
  AUC0–t: 4551.2 ± 440.3 ^# h*ng/mL
[1]; single dose i.v. 1 mg/kg
  AUC0-∞: 1457.0 ± 354.5 ng·h/mL
  C5min: 1564.6 ± 387.5 ng/mL
  CL/F: 12 ± 3.17 mL/min/kg
  V/F: 11.89 ± 3.35 L/kg
  t1/2: 11.33 ± 0.57 h
[1]; single dose i.v. 1 mg/kg, 0–72 h
  AUC0–t: 1419.9 ± 345.5 ng·h/mL
[1]; single dose i.v. 2 mg/kg
  AUC0-∞: 2540.5 ± 308.6 ng·h/mL
  C5min: 2657.6 ± 632.7 ng/mL
  CL/F: 13.3 ± 1.67 mL/min/kg
  V/F: 13.00 ± 2.39 L/kg
  t1/2: 11.24 ± 0.75 h
[1]; single dose i.v. 2 mg/kg, 0–72 h
  AUC0–t: 2466.4 ± 298.3 ng·h/mL
[1]; single dose i.v. 4 mg/kg
  AUC0-∞: 7562.2 ± 2709.6 ng·h/mL
  C5min: 5902.6 ± 1955.2 ng/mL
  CL/F: 10 ± 4 mL/min/kg
  V/F: 11.11 ± 5.28 L/kg
  t1/2: 12.58 ± 1.80 h
[1]; single dose i.v. 4 mg/kg, 0–72 h
  AUC0–t: 7237.1 ± 2695.0 ng·h/mL
[1]; rats, consecutive administration for 7 days
  accumulation after multiple doses: accumulated in rats after multiple doses
[1]; rats, i.v. 2 mg/kg for 7 days vs single administration
  elimination half-life after multiple doses relative to single administration: twice that after a single administration
[1]; rats, single administration of low, medium and high doses (i.v.)
  elimination half-life: 11 to 13 h
[2]; post-extraction samples, autosampler 48 h at 4 °C, spiked 2 ng/mL
  Measured Concentration: 1.8 ± 0.0 ng/mL
[2]; [7]
  Accuracy (RE%): −9.5%
  Measured Concentration: 45.2 ± 0.1 ng/mL
[2]; [8]
  Accuracy (RE%): −9.9%
  Measured Concentration: 901.3 ± 17.1 ng/mL
[2]; rat plasma, frozen (−80 °C) for 7 days, spiked 2 ng/mL
  Accuracy (RE%): 8.2%
[2]; [9]
  Accuracy (RE%): 4.1%
  Measured Concentration: 52.0 ± 0.9 ng/mL
[2]; [10]
  Accuracy (RE%): 3.1%
  Measured Concentration: 1030.5 ± 15.9 ng/mL
[2]; [11]
  Accuracy (RE%): −8.9%
  Measured Concentration: 1.8 ± 0.1 ng/mL
[2]; [12]
  Accuracy (RE%): −5.4%
  Measured Concentration: 47.3 ± 0.6 ng/mL
[2]; [13]
  Accuracy (RE%): −3.0%
  Measured Concentration: 970.1 ± 27.3 ng/mL
[2]; [14]
  Accuracy (RE%): −9.2%
  Measured Concentration: 1.8 ± 0.1 ng/mL
[2]; [15]
  Accuracy (RE%): 2.0%
  Measured Concentration: 51.0 ± 0.4 ng/mL
[2]; [16]
  Accuracy (RE%): 2.1%
  Measured Concentration: 1020.7 ± 23.6 ng/mL
[2]; [17]
  Accuracy (RE%): 8.7%
  Measured Concentration: 2.2 ± 0.1 ng/mL
[2]; [18]
  Accuracy (RE%): 2.3%
  Measured Concentration: 51.1 ± 0.3 ng/mL
[2]; [19]
  Accuracy (RE%): 0.2%
  Measured Concentration: 1001.8 ± 19.0 ng/mL
[2]; rat plasma, room temperature 12 h, −80 °C 7 and 60 days, three freeze-thaw cycles, autosampler 4 °C 48 h
  stability under typical sample storage and processing conditions: stable
[3]; 10 min, 2 h, 12 h
  tissue with the lowest concentration: lowest in the brain
  tissues with the highest concentrations: lung, spleen, liver, and pancreas
[3]; spleen, liver, kidney and heart
  time of highest tissue concentration: 2 h
[4]
  toxicity in animal models as compared to cisplatin: lower toxicity
[5]; broad spectrum of cancer cell lines, including cisplatin-resistant ones
  inhibitory effect on proliferation: strong inhibitory effect
[5]
  selectivity between cancer cells and normal cells: remarkable selectivity

From article PMC6600414, “Pharmacokinetics and Tissue Distribution of a Novel Bis-Chelated Gold(I) Diphosphine Compound, Bis(2,3-bis(tert-butylmethylphosphino)Quinoxaline)Aurate(I), in Rats” (Molecules, 2019)
